Literature values in patent publication US20050032677A1, “Fungicidal and/or bactericidal composition, production process thereof and sterilization method using the composition” (priority 2001, published 2005).
Like-named read-outs stand apart in the source and are kept apart here. *1 amine or outer side, *2 acyl side, *3 side chain or, on linkers, in order; H or OH if unused. Where a SMILES comes first, the peptide text is derived from it. Bridges are numbered along the chain shown (N, C = ends). [ ]: non-standard residue; d: D form. X1 = CC(C)CCCCCCCCC[C@H](CC(=O)[*:1])O[*:2]

Experiments:
erythrocyte membrane = conditions: relative to mixing iturin and surfactin in the latter ratio (2:1)
erythrocyte = conditions: relative to mixing iturin and surfactin
mouse = conditions: hypodermic injection to a mouse

Row | Compound | critical micelle concentration (CMC) (aqueous solution) | critical micelle concentration (CMC) (in a 0.1M sodium hydrogencarbonate solution) | amount bound to the erythrocyte membrane relative to iturin:surfactin 2:1 (erythrocyte membrane) | hemolysis activity relative to iturin and surfactin mixture (erythrocyte) | LD50 (mouse)
1 | CC(C)CCCCCCCCC[C@@H]1CC(=O)N[C@@H](CCC(=O)O)C(=O)N[C@@H](CC(C)C)C(=O)N[C@H](CC(C)C)C(=O)N[C@@H](C(C)C)C(=O)N[C@@H](CC(=O)O)C(=O)N[C@H](CC(C)C)C(=O)N[C@@H](CC(C)C)C(=O)O1 [surfactin] (EL[dL]VD[dL]L; linker N-C via X1) | 250 µM | 10 µM | – | – | –
2 | iturin | 40 µM | – | at most a half | about one sixth | 157 mg/kg
